#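 Compound exposure: 48 hours, 5 concentrations, 96-well plates. TGI: total growth inhibition.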
# Columns and labels:
# Assay in all cases: NCI tumour cell line growth inhibition, 48 h
# NCI-H226 lung = test system: NCI-H226 lung
# HOP-62 NSCLC = test system: HOP-62 NSCLC
# U251 CNS = test system: U251 CNS
# OVCAR-4 ovarian = test system: OVCAR-4 ovarian
# SW-620 colon = test system: SW-620 colon
# OVCAR-5 ovarian = test system: OVCAR-5 ovarian
# K-562 leukemia = test system: K-562 leukemia
# HL-60(TB) leukemia = test system: HL-60(TB) leukemia
# SF-268 CNS = test system: SF-268 CNS
# MDA-MB-435 = test system: MDA-MB-435
# UO-31 renal = test system: UO-31 renal
# SK-MEL-28 melanoma = test system: SK-MEL-28 melanoma
# PC-3 prostate = test system: PC-3 prostate
# UACC-62 melanoma = test system: UACC-62 melanoma
# LOX IMVI melanoma = test system: LOX IMVI melanoma
# MOLT-4 leukemia = test system: MOLT-4 leukemia
# UACC-257 melanoma = test system: UACC-257 melanoma
# A549 NSCLC = test system: A549 NSCLC
# HCC-2998 colon = test system: HCC-2998 colon
# MCF7 breast = test system: MCF7 breast
# M14 melanoma = test system: M14 melanoma
# SF-539 CNS = test system: SF-539 CNS
# HT29 colon = test system: HT29 colon
# MDA-N = test system: MDA-N
# CAKI-1 renal = test system: CAKI-1 renal
# MDA-MB-231 breast = test system: MDA-MB-231 breast
# NCI-H460 lung = test system: NCI-H460 lung
# HOP-92 NSCLC = test system: HOP-92 NSCLC
# OVCAR-8 ovarian = test system: OVCAR-8 ovarian
# HS 578T breast = test system: HS 578T breast
# SN12C renal = test system: SN12C renal
# HCT-116 colon = test system: HCT-116 colon
# HCT-15 colon = test system: HCT-15 colon
# A498 renal = test system: A498 renal
# SNB-75 CNS = test system: SNB-75 CNS
# SK-MEL-5 melanoma = test system: SK-MEL-5 melanoma
# OVCAR-3 ovarian = test system: OVCAR-3 ovarian
# ACHN renal = test system: ACHN renal
# RPMI-8226 leukemia = test system: RPMI-8226 leukemia
# TK-10 renal = test system: TK-10 renal
# SR leukemia = test system: SR leukemia
# CCRF-CEM leukemia = test system: CCRF-CEM leukemia
# SF-295 CNS = test system: SF-295 CNS
# T-47D breast = test system: T-47D breast
# NCI/ADR-RES ovarian = test system: NCI/ADR-RES ovarian
# NCI-H23 lung = test system: NCI-H23 lung
# COLO 205 colon = test system: COLO 205 colon
# IGROV1 ovarian = test system: IGROV1 ovarian
# DU-145 prostate = test system: DU-145 prostate
# BT-549 breast = test system: BT-549 breast
# RXF 393 renal = test system: RXF 393 renal
# EKVX NSCLC = test system: EKVX NSCLC
# 786-0 renal = test system: 786-0 renal
# NCI-H522 lung = test system: NCI-H522 lung
# SNB-19 CNS = test system: SNB-19 CNS
# KM12 colon = test system: KM12 colon
smiles,measurement,setting,value
CN(C)Cc1cc(N=Nc2ccccc2Cl)cc(CN(C)C)c1O,TGI,NCI-H226 lung,> 100 µM
same,TGI,HOP-62 NSCLC,> 100 µM
same,TGI,U251 CNS,> 100 µM
same,TGI,OVCAR-4 ovarian,> 100 µM
same,TGI,SW-620 colon,> 100 µM
same,TGI,OVCAR-5 ovarian,> 100 µM
same,TGI,K-562 leukemia,> 100 µM
same,TGI,HL-60(TB) leukemia,62.8 µM
same,TGI,SF-268 CNS,> 100 µM
same,TGI,MDA-MB-435,> 100 µM
same,TGI,UO-31 renal,> 100 µM
same,TGI,SK-MEL-28 melanoma,33.6 µM
same,TGI,PC-3 prostate,> 100 µM
same,TGI,UACC-62 melanoma,64.1 µM
same,TGI,LOX IMVI melanoma,38.7 µM
same,TGI,MOLT-4 leukemia,> 100 µM
same,TGI,UACC-257 melanoma,41.4 µM
same,TGI,A549 NSCLC,> 100 µM
same,TGI,HCC-2998 colon,> 100 µM
same,TGI,MCF7 breast,> 100 µM
same,TGI,M14 melanoma,49.1 µM
same,TGI,SF-539 CNS,> 100 µM
same,TGI,HT29 colon,> 100 µM
same,TGI,MDA-N,79.3 µM
same,TGI,CAKI-1 renal,> 100 µM
same,TGI,MDA-MB-231 breast,> 100 µM
same,TGI,NCI-H460 lung,> 100 µM
same,TGI,HOP-92 NSCLC,> 100 µM
same,TGI,OVCAR-8 ovarian,> 100 µM
same,TGI,HS 578T breast,> 100 µM
same,TGI,SN12C renal,> 100 µM
same,TGI,HCT-116 colon,> 100 µM
same,TGI,HCT-15 colon,> 100 µM
same,TGI,A498 renal,> 100 µM
same,TGI,SNB-75 CNS,> 100 µM
same,TGI,SK-MEL-5 melanoma,32 µM
same,TGI,OVCAR-3 ovarian,> 100 µM
same,TGI,ACHN renal,> 100 µM
same,TGI,RPMI-8226 leukemia,> 100 µM
same,TGI,TK-10 renal,> 100 µM
same,TGI,SR leukemia,> 100 µM
same,TGI,CCRF-CEM leukemia,76.7 µM
same,TGI,SF-295 CNS,> 100 µM
same,TGI,T-47D breast,> 100 µM
same,TGI,NCI/ADR-RES ovarian,> 100 µM
same,TGI,NCI-H23 lung,> 100 µM
same,TGI,COLO 205 colon,> 100 µM
same,TGI,IGROV1 ovarian,> 100 µM
same,TGI,DU-145 prostate,> 100 µM
same,TGI,BT-549 breast,> 100 µM
same,TGI,RXF 393 renal,88.3 µM
same,TGI,EKVX NSCLC,> 100 µM
same,TGI,786-0 renal,> 100 µM
same,TGI,NCI-H522 lung,28.8 µM
same,TGI,SNB-19 CNS,> 100 µM
same,TGI,KM12 colon,> 100 µM
